These results are taken from ChEMBL document CHEMBL4118129, “Evaluation of novel TGR5 agonist in combination with Sitagliptin for possible treatment of type 2 diabetes” (Bioorg Med Chem Lett, 2018).

Common to all, as to assay type: ADME, organism-based
The nature of data set [1]: AUC in C57BL/6 mouse at 30 mg/kg, po by LC-MS/MS analysis. Conditions: in vivo.
A short description of data set [2]: Tmax in C57BL/6 mouse at 30 mg/kg, po by LC-MS/MS analysis. Conditions: in vivo.
Data set [3] can be described thus: Terminal half life in C57BL/6 mouse at 30 mg/kg, po by LC-MS/MS analysis. To be noted: in vivo, read-out: beta t1/2 (converted).
Data set [4] can be described thus: Cmax in C57BL/6 mouse at 30 mg/kg, po by LC-MS/MS analysis. Also on record: dose 30 mg/kg, route oral. To be noted: in vivo.

`COc1ccc(C(C)(C)c2cnc(SCCOCc3ccc(C#N)cc3)n2-c2ccc(F)cc2)cc1OC` gave an AUC in data set [1] of 2.5 µM·h. Besides, in data set [2], the time to peak (Tmax) was found to be 12 min. Besides, the half-life in data set [3] is 60 min. In data set [4], this molecule displayed a Cmax of 2100 nM.
